# Measured values published in PMC7570844, “Skin Damages—Structure Activity Relationship of Benzimidazole Derivatives Bearing a 5-Membered Ring System” (Molecules, 2020).
# Several values for one entry are separate records, joined by “and”; a condition that tells them apart may be missing. Identical values can stand only once.
# Legend:
# [1] = UV filtering parameters of cosmetic formulation on PMMA plates (modified Diffey-Robson); type: physicochemical
# [2] = tested on: Respiratory syncytial virus; test: microbe, parasite or virus in culture; type: cell-based; details: human respiratory syncytial virus, HeLa cells, read-out: Antiviral EC50
# [3] = tested on: HEK293T (Normal Kidney Epithelial Cells); test: Cell proliferation inhibition, non-cancer control cells; details: Homo sapiens, HEK-293T
# [4] = tested on: vesicular stomatitis virus; test: microbe, parasite or virus in culture; type: cell-based; details: HeLa, read-out: Antiviral EC50
# HeLa cell cultures = details: human
# [5] = tested on: human cervical carcinoma cells (HeLa); test: Cell proliferation inhibition
# [6] = tested on: M. gypseum, M. canis, T. mentagrophytes, T. tonsurans and E. floccosum; test: Antidermatophyte activity, all five dermatophytes taken together; type: cell-based; details: for Activity on dermatophytes (in words) / inhibition at 100 µg/mL: 100 µg/mL; for inhibition at 100 µg/mL / IC50: all five dermatophytes; for inhibition at 100 µg/mL: read-out: Percentage of growth inhibition over the five dermatophytes; for IC50: read-out: IC50 range over the five dermatophytes
# [7] = Ferric reducing antioxidant power (FRAP) test; details: mean ± SEM
# Adeno virus-2 = test: Antiviral activity in HEL cell cultures (CPE, MTS); type: cell-based; details: Adeno virus-2, HEL cells
# Microsporum gypseum = test: Antidermatophyte plaque growth inhibition; type: cell-based; details: Nannizzia gypsea; for IC50: M. gypseum growth, read-out: IC50; for inhibition at 100 µg/mL: M. gypseum, '+' has no key, read-out: Percent growth inhibition
# Epidermophyton floccosum = test: Antidermatophyte plaque growth inhibition; type: cell-based; details: for IC50: E. floccosum growth, read-out: IC50; for inhibition at 100 µg/mL: E. floccosum, '+' has no key, read-out: Percent growth inhibition
# Coxsackie virus B4 = test: Antiviral activity in HeLa cell cultures (CPE, MTS); type: cell-based; details: Enterovirus B; Coxsackie virus B4, HeLa cells
# vaccinia virus = test: microbe, parasite or virus in culture; type: cell-based; details: Orthopoxvirus vaccinia, HEL, read-out: Antiviral EC50
# Human Coronavirus (229E) = test: microbe, parasite or virus in culture; type: cell-based; details: HEL, read-out: Antiviral EC50
# [8] = DPPH radical scavenging test; details: mean ± SEM
# Microsporum canis = test: Antidermatophyte plaque growth inhibition; type: cell-based; details: for IC50: M. canis growth, read-out: IC50; for inhibition at 100 µg/mL: M. canis, '+' has no key, read-out: Percent growth inhibition
# [9] = tested on: herpes simplex virus-2 (G); test: Antiviral activity in HEL cell cultures (CPE, MTS); type: cell-based; details: Human alphaherpesvirus 2; Herpes simplex virus-2, HEL cells
# [10] = tested on: human embryonic lung (HEL) cell cultures
# [11] = tested on: human pancreatic carcinoma cells (Mia Paca-2); test: Cell proliferation inhibition
# [12] = UV filtering parameters of compounds in solution (MeOH, 290-400 nm)
# [13] = tested on: herpes simplex virus-1 (KOS); test: Antiviral activity in HEL cell cultures (CPE, MTS); type: cell-based; details: Human alphaherpesvirus 1, HEL cells
# [14] = tested on: human T-lymphocyte cells (CEM); test: Cell proliferation inhibition
# [15] = tested on: herpes simplex virus-1 TK-KOS ACVr; test: microbe, parasite or virus in culture; type: cell-based; details: Human alphaherpesvirus 1, HEL, read-out: Antiviral EC50
# Trichophyton tonsurans = test: Antidermatophyte plaque growth inhibition; type: cell-based; details: for IC50: T. tonsurans growth, read-out: IC50; for inhibition at 100 µg/mL: T. tonsurans, '+' has no key, read-out: Percent growth inhibition
# [16] = tested on: Trichophyton mentagrophytes; test: Antidermatophyte plaque growth inhibition; type: cell-based; details: for IC50: T. mentagrophytes growth, read-out: IC50; for inhibition at 100 µg/mL: T. mentagrophytes, '+' has no key, read-out: Percent growth inhibition
# [17] = tested on: human melanoma cells (SK-Mel 5); test: Cell proliferation inhibition
smiles,measurement,setting,value
"c1c[nH]c(-c2nc3ccccc3[nH]2)c1 [Compound 10, 2-(1H-pyrrol-2-yl)-1H-benzimidazole]",SPF,[1]; 1% in formulation,2.44
same,UVA/UVB,[1]; 1% in formulation,0.70
same,UVAPF,[1]; 1% in formulation,1.16
same,λc,[1]; 1% in formulation,341 nm
same,SPF,[1]; 2% in formulation,2.72
same,UVA/UVB,[1]; 2% in formulation,0.73
same,UVAPF,[1]; 2% in formulation,1.32
same,λc,[1]; 2% in formulation,357 nm
same,SPF,[1]; 3% in formulation,3.06
same,UVA/UVB,[1]; 3% in formulation,0.75
same,UVAPF,[1]; 3% in formulation,1.54
same,λc,[1]; 3% in formulation,364 nm
same,EC50,[2],> 100 µM
same,IC50,[3],31 ± 3 µM
same,EC50,[4],> 100 µM
same,Cytotoxic concentration,HeLa cell cultures,> 100 µM
same,IC50,[5],37 µM
same,Activity on dermatophytes (in words),[6],fungicide activity
same,inhibition at 100 µg/mL,[6],~100%
same,IC50,[6],0.97 to 3.8 µg/mL
same,FRAP,[7],1085.57 ± 0.88 µmolTE/g
same,EC50,Adeno virus-2,> 100 µM
same,IC50,Microsporum gypseum,1.53 ± 0.05 µg/mL
same,inhibition at 100 µg/mL,Microsporum gypseum,99.1 ± 1.33%
same,IC50,Epidermophyton floccosum,1.07 ± 0.03 µg/mL
same,inhibition at 100 µg/mL,Epidermophyton floccosum,102 ± 4.92%
same,EC50,Coxsackie virus B4,> 100 µM
same,EC50,vaccinia virus,> 100 µM
same,EC50,Human Coronavirus (229E),> 100 µM
same,DPPH IC50,[8],64.098 µg/mL and 64.10 ± 3.21 µg/mL
same,IC50,Microsporum canis,1.34 ± 0.02 µg/mL
same,inhibition at 100 µg/mL,Microsporum canis,96.8 ± 3.56%
same,EC50,[9],> 100 µM
same,Cytotoxic concentration,[10],> 100 µM
same,melting point,,> 250 °C
same,IC50,[11],15 ± 9 µM
same,UVA/UVB,[12],0.02
same,UVAPF,[12],1.16±0.05
same,λc (critical wavelength),[12],325 nm
same,EC50,[13],> 100 µM
same,IC50,[14],14 ± 1 µM
same,EC50,[15],> 100 µM
same,IC50,Trichophyton tonsurans,0.97 ± 0.06 µg/mL
same,inhibition at 100 µg/mL,Trichophyton tonsurans,96.97 ± 0.62%
same,IC50,[16],1.38 ± 0.08 µg/mL
same,inhibition at 100 µg/mL,[16],96.3 ± 2.42%
same,IC50,[17],9.7 ± 1.7 µM
"c1csc(-c2nc3ccccc3[nH]2)c1 [Compound 12, 2-(thiophen-2-yl)-1H-benzimidazole]",SPF,[1]; 1% in formulation,2.41
same,UVA/UVB,[1]; 1% in formulation,0.71
same,UVAPF,[1]; 1% in formulation,1.16
same,λc,[1]; 1% in formulation,340 nm
same,SPF,[1]; 2% in formulation,2.59
same,UVA/UVB,[1]; 2% in formulation,0.70
same,UVAPF,[1]; 2% in formulation,1.22
same,λc,[1]; 2% in formulation,342 nm
same,SPF,[1]; 3% in formulation,2.79
same,UVA/UVB,[1]; 3% in formulation,0.69
same,UVAPF,[1]; 3% in formulation,1.26
same,λc,[1]; 3% in formulation,344 nm
same,EC50,[2],> 100 µM
same,IC50,[3],> 100 µM
same,EC50,[4],> 100 µM
same,Cytotoxic concentration,HeLa cell cultures,> 100 µM
same,IC50,[5],> 100 µM
same,Activity on dermatophytes (in words),[6],fungicide activity
same,inhibition at 100 µg/mL,[6],~100%
same,IC50,[6],0.97 to 3.8 µg/mL
same,FRAP,[7],75.89 ± 5.43 µmolTE/g
same,EC50,Adeno virus-2,> 100 µM
same,IC50,Microsporum gypseum,1.55 ± 0.03 µg/mL
same,inhibition at 100 µg/mL,Microsporum gypseum,100 ± 1.63%
same,IC50,Epidermophyton floccosum,3.8 ± 0.07 µg/mL
same,inhibition at 100 µg/mL,Epidermophyton floccosum,94.7 ± 5.45%
same,EC50,Coxsackie virus B4,> 100 µM
same,EC50,vaccinia virus,> 100 µM
same,EC50,Human Coronavirus (229E),> 100 µM
same,DPPH (% Inhibition),[8]; tested at 1 mg/mL,35.05 ± 0.87%
same,IC50,Microsporum canis,2.14 ± 0.09 µg/mL
same,inhibition at 100 µg/mL,Microsporum canis,92.9 ± 1.33%
same,EC50,[9],> 100 µM
same,Cytotoxic concentration,[10],> 100 µM
same,IC50,[11],≥ 100 µM
same,UVA/UVB,[12],0.37
same,UVAPF,[12],1.49±0.07
same,λc (critical wavelength),[12],345 nm
same,EC50,[13],> 100 µM
same,IC50,[14],> 100 µM
same,EC50,[15],> 100 µM
same,IC50,Trichophyton tonsurans,2.42 ± 0.15 µg/mL
same,inhibition at 100 µg/mL,Trichophyton tonsurans,97 ± 1.34%
same,IC50,[16],1.74 ± 0.11 µg/mL
same,inhibition at 100 µg/mL,[16],98.1 ± 2.76%
same,IC50,[17],86 ± 17 µM
